Measured values taken from US7348400B2 (priority 2001, dated 2008).
Entries after “also recorded” stand apart in the source; their conditions may differ.

Tests used:
[1] = in vivo; cited from earlier work
[2] = system: unmyelinated primary afferent sensory nerves; settings: rat, in vivo
[3] = system: injured nerve (sensory nerves); settings: rat, in vivo
[4] = rat, in vivo
[5] = rat, in vivo; remark: listed apart in the source
[6] = system: neuronal nAChR; assay type: cell-based, bovine
[7] = system: rats with chronic constriction injury; settings: rat, in vivo
[8] = system: nAChR; assay type: binding, bovine

## CSCC[C@@H]1NC(=O)[C@H](CC(C)C)NC(=O)[C@H](CCCNC(=N)N)NC(=O)[C@H](CO)NC(=O)[C@@H]2CSSC[C@@H]3NC(=O)[C@H](CO)NC(=O)CNC(=O)[C@H]([C@@H](C)O)NC(=O)[C@H](CSSC[C@H](N)C(=O)N[C@@H](CCCCN)C(=O)NCC(=O)N[C@@H](CCCCN)C(=O)NCC(=O)N[C@@H](C)C(=O)N[C@@H](CCCCN)C(=O)N2)NC(=O)[C@H](CSSC[C@@H](C(N)=O)NC(=O)[C@H](CCCCN)NC(=O)CNC(=O)[C@H](CO)NC(=O)[C@H](CCCNC(=N)N)NC3=O)NC(=O)[C@H](CC(=O)O)NC(=O)[C@H](Cc2ccc(O)cc2)NC1=O [MVIIA]
[1]
  potency relative to morphine: 1000 times
[2]
  inhibition of the vascular response to LFES of sensory nerves: significant inhibition; also recorded: more effective
[3]
  recovery of vascular response to substance P compared to control: 54%

## CC[C@H](C)[C@@H]1NC(=O)[C@H](CCC(=O)O)NC(=O)[C@@H]2CCCN2C(=O)[C@H](Cc2cnc[nH]2)NC(=O)[C@H](CC(=O)O)NC(=O)[C@H](Cc2ccc(O)cc2)NC(=O)[C@H](CC(N)=O)NC(=O)[C@@H]2CSSC[C@H](NC(=O)CN)C(=O)N[C@@H](CSSC[C@@H](C(N)=O)NC1=O)C(=O)N[C@@H](CO)C(=O)N[C@@H](CC(=O)O)C(=O)N1CCC[C@H]1C(=O)N[C@@H](CCCNC(=N)N)C(=O)N2 [Vc1.1, GCCSDPRCNYDHPEIC-NH2]
[4]
  adverse side-effects: not observed any adverse side-effects
[5]
  effect upon systemic blood pressure: no effect

## G C C S H P A C Y A N N Q D Y C-NH2 [An1.1]
[6]
  inhibition of the neuronal nicotinic response in cultured BCCs (comparison): not nearly as inhibitory as Vc1.1
  nature of the inhibition of nicotine-evoked catecholamine release: competitive inhibitor
  protection against nicotinic receptor desensitisation: protects against nicotinic receptor desensitisation

## GCCSD4 -HypRCNYDHPgammacarboxy-GluIC-NH2 [Vc1.1ptm]
[7]
  long-term effectiveness in inhibiting neuropathic pain: without effect; also recorded: but not Vc1.1ptm was effective
[2]
  inhibition of sensory nerve activity (comparison): less effective than Vc1.1
[3]
  recovery of vascular response to substance P compared to control: 85%
[8]
  displacement of 3H-epibatidine binding: displaced the first component, but did not significantly displace the second component
